The subject of the assay is HBV. The experiment in a line: HBV inhibition assay in HepAD38 cells (extracellular HBV DNA by direct qPCR). The conditions noted are these: Hepatitis B virus, 96 hours; for EC50: 8-point dose-response curve, read-out: HBV inh EC50. In kind it is cell-based, Hepatitis B virus. In general terms: Real-time PCR tracks product formation cycle by cycle.
[1] abbreviates: relative to non-treated reference, read-out: Anti HBV Activity (conc μM).

Among the data in patent publication US11504382B2, “Tricyclic inhibitors of Hepatitis B virus” (Antios Therapeutics, Inc., priority 2018, dated 2022) are EC50 and inhibition values, retold here.

The EC50 is the concentration at which the effect is half-maximal.

`Cn1cc2c(c1C(=O)Nc1cc(F)c(F)c(F)c1)OCC1CN(C(=O)c3nonc3N)CC1NS2(=O)=O` (stereo not drawn) [Example E60, cis-2-(4-amino-1,2,5-oxadiazole-3-carbonyl)-7-methyl-N-(3,4,5-trifluorophenyl)-2,3,3a,4,10,10a-hexahydro-1H,7H-dipyrrolo[3,4-b:3′,4′-f][1,4,5]oxathiazocine-8-carboxamide 5,5-dioxide]: the concentration for a half-maximal effect (EC50) is below 1 µM. Consider `CCOC(=O)N1CC2COc3c(cn(C)c3C(=O)Nc3ccc(F)c(C(F)F)c3)S(=O)(=O)NC2C1` (racemic) [Example E16, Cis-Ethyl 8-((3-(difluoromethyl)-4-fluorophenyl)carbamoyl)-7-methyl-3a,4,10,10a-tetrahydro-1H,7H-dipyrrolo[3,4-b:3′,4′-f][1,4,5]oxathiazocine-2(3H)-carboxylate 5,5-dioxide], for which the EC50 was below 1 µM. Under setting [1], the inhibition at 0.1 µM was above 50%.

On to `Cc1noc(N2CC3COc4c(cn(C)c4C(=O)Nc4cc(F)c(F)c(F)c4)S(=O)(=O)NC3C2)n1` (stereo not drawn) [Example E83, cis-7-methyl-2-(3-methyl-1,2,4-oxadiazol-5-yl)-N-(3,4,5-trifluorophenyl)-2,3,3a,4,10,10a-hexahydro-1H,7H-dipyrrolo[3,4-b:3′,4′-f][1,4,5]oxathiazocine-8-carboxamide 5,5-dioxide], for which the 50% effective concentration (EC50) is below 1 µM. Further, the inhibition at 0.1 µM under setting [1] is above 50%.

On to `Cc1cc(C(=O)N2CC3COc4c(cn(C)c4C(=O)Nc4ccc(F)c(C)c4)S(=O)(=O)NC3C2)no1` (stereo not drawn) [Example E52, cis-N-(4-fluoro-3-methylphenyl)-7-methyl-2-(5-methylisoxazole-3-carbonyl)-2,3,3a,4,10,10a-hexahydro-1H,7H-dipyrrolo[3,4-b:3′,4′-f][1,4,5]oxathiazocine-8-carboxamide 5,5-dioxide], for which the EC50 is below 1 µM. In addition, the inhibition at 0.05 µM (0.05 μM, relative to non-treated reference, read-out: Anti HBV Activity (conc μM)) was above 50%. In the case of `Cn1cc2c(c1C(=O)Nc1ccc(F)c(F)c1)NCC1CCCCN1S2(=O)=O` (stereo not shown) [Example E2, N-(3,4-difluorophenyl)-2-methyl-2,6,7,8,9,9a,10,11-octahydropyrido[1,2-b]pyrrolo[3,4-f][1,2,5]thiadiazepine-1-carboxamide 4,4-dioxide], the inhibition at 1 µM (1 μM, relative to non-treated reference, read-out: Anti HBV Activity (conc μM)) is below 50%. In the case of `Cc1cc(NC(=O)c2c3c(cn2C)S(=O)(=O)NC2CN(C(=O)C4(C)CCCO4)CC2CO3)ccc1F` (stereo not drawn) [Example E148, Trans-N-(4-fluoro-3-methylphenyl)-7-methyl-2-(2-methyltetrahydrofuran-2-carbonyl)-2,3,3a,4,10,10a-hexahydro-1H,7H-dipyrrolo[3,4-b:3′,4′-f][1,4,5]oxathiazocine-8-carboxamide 5,5-dioxide], the EC50 was below 1 µM. With `Cn1cc2c(c1C(=O)Nc1cc(F)c(F)c(F)c1)OC[C@@H]1CNC[C@@H]1NS2(=O)=O` [Example E36, 7-methyl-N-(3,4,5-trifluorophenyl)-2,3,3a,4,10,10a-hexahydro-1H,7H-dipyrrolo[3,4-b:3′,4′-f][1,4,5]oxathiazocine-8-carboxamide 5,5-dioxide (3aR,10aR)], the inhibition at 0.1 µM under setting [1] is below 50%. For the compound `CCOC(=O)N1CC2CNc3c(cn(C)c3C(=O)Nc3ccc(F)c(C)c3)S(=O)(=O)NC2C1` (stereo not drawn) [Example E157, Cis Ethyl 8-((4-fluoro-3-methylphenyl)carbamoyl)-7-methyl-3a,4,7,9,10,10a-hexahydro-1H-dipyrrolo[3,4-c:3′,4′-g][1,2,6]thiadiazocine-2(3H)-carboxylate 5,5-dioxide], the EC50 is above 1 µM. Consider `Cc1cc(NC(=O)c2c3c(cn2C)S(=O)(=O)N[C@@H]2CN(C(=O)OC(C)(C)C)C[C@H]2CO3)ccc1F` (single isomer, unassigned) [Example E151], for which the EC50 is below 1 µM.

Turning to `Cc1cc(NC(=O)c2c3c(cn2C)S(=O)(=O)NC2CN(C(=O)c4ncoc4C)CC2(C)CO3)ccc1F` (stereo not drawn) [Example E87, cis-N-(4-fluoro-3-methylphenyl)-7,10a-dimethyl-2-(5-methyloxazole-4-carbonyl)-2,3,3a,4,10,10a-hexahydro-1H,7H-dipyrrolo[3,4-b:3′,4′-f][1,4,5]oxathiazocine-8-carboxamide 5,5-dioxide], the EC50 was below 1 µM.
